Experiments:
Experiment in all cases: relative viability (nuclei count vs DMSO), 5 days (fraction); higher = more cells survive
[1] = test system: A-427
How it was run: (§1)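 Lung cancer cell lines were pin-tool dosed in 1536-well plates on the day after seeding, with either a lone drug or a fixed anchor-drug dose plus five library-drug doses (not always all listed) in √10 steps. Nuclei were counted on 4× images after 5 days. Relative viability is the ratio of treated-well to vehicle-well nuclei counts, with each value a median of duplicate plates.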

[2] = test system: ABC-1
How it was run: as §1

[3] = test system: BEN
How it was run: as §1

[4] = test system: CAL-12T
How it was run: as §1

[5] = test system: HARA
How it was run: as §1

[6] = test system: LOU-NH91
How it was run: as §1

[7] = test system: NCI-H1651
How it was run: as §1

[8] = test system: NCI-H1666
How it was run: as §1

[9] = test system: NCI-H1734
How it was run: as §1

[10] = test system: NCI-H1944
How it was run: as §1

[11] = test system: NCI-H1975
How it was run: as §1

[12] = test system: NCI-H2085
How it was run: as §1

[13] = test system: NCI-H2126
How it was run: as §1

[14] = test system: NCI-H460
How it was run: as §1

[15] = test system: NCI-H520
How it was run: as §1

[16] = test system: NCI-H596
How it was run: as §1

[17] = test system: NCI-H647
How it was run: as §1

[18] = test system: NCI-H661
How it was run: as §1

[19] = test system: NCI-H727
How it was run: as §1

[20] = test system: NCI-H838
How it was run: as §1

[21] = test system: RERF-LC-KJ
How it was run: as §1

CN1CCN(CCOc2cc(OC3CCOCC3)c3c(Nc4c(Cl)ccc5c4OCO5)ncnc3c2)CC1 [Saracatinib] + CS(=O)(=O)CCNCc1ccc(-c2ccc3ncnc(Nc4ccc(OCc5cccc(F)c5)c(Cl)c4)c3c2)o1 [Lapatinib] (partner 2 µM)
relative viability ([1]; first compound 0.02 µM): 0.921
relative viability ([1]; first compound 0.2 µM): 0.877
relative viability ([1]; first compound 0.6325 µM): 1.07
relative viability ([1]; first compound 2 µM): 1.04
relative viability ([2]; first compound 0.02 µM): 1.16
relative viability ([2]; first compound 0.2 µM): 0.921
relative viability ([2]; first compound 0.6325 µM): 1.08
relative viability ([2]; first compound 2 µM): 0.921
relative viability ([3]; first compound 0.02 µM): 0.745
relative viability ([3]; first compound 0.2 µM): 0.541
relative viability ([3]; first compound 0.6325 µM): 0.911
relative viability ([3]; first compound 2 µM): 0.489
relative viability ([4]; first compound 0.02 µM): 0.675
relative viability ([4]; first compound 0.2 µM): 0.678
relative viability ([4]; first compound 0.6325 µM): 0.791
relative viability ([4]; first compound 2 µM): 0.555
relative viability ([5]; first compound 0.02 µM): 0.808
relative viability ([5]; first compound 0.6325 µM): 1.1
relative viability ([5]; first compound 2 µM): 0.442
relative viability ([6]; first compound 0.02 µM): 0.824
relative viability ([6]; first compound 0.2 µM): 0.713
relative viability ([6]; first compound 0.6325 µM): 0.747
relative viability ([6]; first compound 2 µM): 0.652
relative viability ([7]; first compound 0.02 µM): 0.92
relative viability ([7]; first compound 0.2 µM): 0.678
relative viability ([7]; first compound 0.6325 µM): 0.873
relative viability ([7]; first compound 2 µM): 0.695
relative viability ([8]; first compound 0.02 µM): 0.686
relative viability ([8]; first compound 0.2 µM): 0.629
relative viability ([8]; first compound 0.6325 µM): 0.777
relative viability ([8]; first compound 2 µM): 0.872
relative viability ([9]; first compound 0.02 µM): 1.11
relative viability ([9]; first compound 0.6325 µM): 0.999
relative viability ([9]; first compound 2 µM): 0.777
relative viability ([10]; first compound 0.02 µM): 0.808
relative viability ([10]; first compound 0.6325 µM): 0.872
relative viability ([10]; first compound 2 µM): 0.459
relative viability ([11]; first compound 0.02 µM): 1.03
relative viability ([11]; first compound 0.6325 µM): 0.819
relative viability ([11]; first compound 2 µM): 0.687
relative viability ([12]; first compound 0.02 µM): 0.802
relative viability ([12]; first compound 0.2 µM): 0.615
relative viability ([12]; first compound 0.6325 µM): 0.811
relative viability ([12]; first compound 2 µM): 0.725
relative viability ([13]; first compound 0.02 µM): 0.813
relative viability ([13]; first compound 0.2 µM): 0.686
relative viability ([13]; first compound 0.6325 µM): 0.732
relative viability ([13]; first compound 2 µM): 0.626
relative viability ([14]; first compound 0.02 µM): 0.886
relative viability ([14]; first compound 0.2 µM): 0.682
relative viability ([14]; first compound 0.6325 µM): 0.799
relative viability ([14]; first compound 2 µM): 1.05
relative viability ([15]; first compound 0.02 µM): 0.853
relative viability ([15]; first compound 0.2 µM): 0.693
relative viability ([15]; first compound 0.6325 µM): 0.708
relative viability ([15]; first compound 2 µM): 0.574
relative viability ([16]; first compound 0.02 µM): 1.02
relative viability ([16]; first compound 0.2 µM): 1.03
relative viability ([16]; first compound 0.6325 µM): 0.994
relative viability ([16]; first compound 2 µM): 0.796
relative viability ([17]; first compound 0.02 µM): 0.76
relative viability ([17]; first compound 0.2 µM): 0.803
relative viability ([17]; first compound 0.6325 µM): 0.894
relative viability ([17]; first compound 2 µM): 0.48
relative viability ([18]; first compound 0.02 µM): 0.456
relative viability ([18]; first compound 0.2 µM): 0.552
relative viability ([18]; first compound 0.6325 µM): 0.633
relative viability ([18]; first compound 2 µM): 0.37
relative viability ([19]; first compound 0.02 µM): 0.688
relative viability ([19]; first compound 0.2 µM): 0.647
relative viability ([19]; first compound 0.6325 µM): 0.78
relative viability ([19]; first compound 2 µM): 0.587
relative viability ([20]; first compound 0.02 µM): 0.979
relative viability ([20]; first compound 0.2 µM): 0.893
relative viability ([20]; first compound 0.6325 µM): 0.842
relative viability ([20]; first compound 2 µM): 0.655
relative viability ([21]; first compound 0.02 µM): 0.893
relative viability ([21]; first compound 0.2 µM): 0.82
relative viability ([21]; first compound 0.6325 µM): 0.881
relative viability ([21]; first compound 2 µM): 1.02

— the supplement of paper PMC10307832
